Molecular target: Bromodomain-containing protein 4 (Homo sapiens, UniProt O60885)
Experiment: Inhibition of GST-tagged BRD4-BD1 (49 to 170 residues) (unknown origin) using Histone H4 peptide as substrate incubated for 1.5 hrs by FRET assay

Row | IC50 | Compound
1 | 14.1 µM | CCN(CC)S(=O)(=O)c1ccc([C@H]2CC(=O)N(C)C2)c(-c2ccc(OC)c(OC)c2)c1
2 | 2670 µM | CCN(CC)S(=O)(=O)c1ccc(C2CC(=O)N(C)C2)c(-c2csc3ccccc23)c1 (stereo not given)
3 | 1390 µM | CN1CC(c2ccc(S(=O)(=O)NCCCn3ccnc3)cc2)CC1=O (stereo not given)
4 | 144 µM | CN1CC(c2ccc(S(=O)(=O)N3CCCCC3)cc2)CC1=O (stereo not given)
5 | 147 µM | CCCNS(=O)(=O)c1ccc(C2CC(=O)N(C)C2)cc1 (stereo not given)
6 | 51.6 µM | CCN(CC)S(=O)(=O)c1ccc(C2CC(=O)N(C)C2)c(-c2ccc(OC)c(OC)c2)c1 (stereo not given)
7 | 134 µM | CC(C)NS(=O)(=O)c1ccc(C2CC(=O)N(C)C2)cc1 (stereo not given)
8 | 321 µM | CN1CC(c2ccccc2Br)CC1=O (stereo not given)
9 | 151 µM | CN1CC(c2ccc(S(=O)(=O)NC34CC5CC(CC(C5)C3)C4)cc2)CC1=O (stereo not given)
10 | 250 µM | CCNS(=O)(=O)c1ccc(C2CC(=O)N(C)C2)cc1 (stereo not given)
11 | 4500 µM | CCN(CC)S(=O)(=O)c1ccc(C2CC(=O)N(C)C2)c(CCc2ccccc2)c1 (stereo not given)
12 | 276 µM | CN1CC(c2ccc(S(=O)(=O)N3CCOCC3)cc2)CC1=O (stereo not given)
13 | 3200 µM | CCN(CC)S(=O)(=O)c1ccc(C2CC(=O)N(C)C2)c(-c2ccccc2)c1 (stereo not given)
14 | 473 µM | CN1CC(c2ccc(S(=O)(=O)N3CCC(c4ccccc4)CC3)cc2)CC1=O (stereo not given)
15 | 1960 µM | CN1CC(c2ccc(S(=O)(=O)N3CCC[C@H](C(=O)O)C3)cc2)CC1=O (stereo not given in full)
16 | 1680 µM | CN1CC(c2ccc(S(=O)(=O)N3CCC[C@@H](C(=O)O)C3)cc2)CC1=O (stereo not given in full)
17 | 575 µM | CN1CC(c2ccccc2-c2ccccc2)CC1=O (stereo not given)
18 | 443 µM | CN1CC(c2ccc(S(=O)(=O)NCc3ccccc3)cc2)CC1=O (stereo not given)
19 | 1430 µM | CN1C[C@H](c2ccccc2)CC1=O
20 | 35.2 µM | CCN(CC)S(=O)(=O)c1ccc([C@@H]2CC(=O)N(C)C2)c(-c2ccc(OC)c(OC)c2)c1
21 | 629 µM | CN1C[C@@H](c2ccccc2)CC1=O
22 | 217 µM | CCN(CC)S(=O)(=O)c1ccc(C2CC(=O)N(C)C2)c(-c2ccc(N(C)C)cc2)c1 (stereo not given)
23 | 1140 µM | CN1CC(c2ccccc2)CC1=O (stereo not given)
24 | 417 µM | CN1CC(c2ccc(Br)cc2)CC1=O (stereo not given)
25 | 123 µM | CCN(CC)S(=O)(=O)c1ccc(C2CC(=O)N(C)C2)cc1 (stereo not given)
26 | 652 µM | CCN(CC)S(=O)(=O)c1ccc(C2CC(=O)N(C)C2)c(Br)c1 (stereo not given)
27 | 223 µM | CN1CC(c2ccc(S(=O)(=O)N3C4CCC3CC(=O)C4)cc2)CC1=O (stereo not given)
28 | 434 µM | CN1CC(c2ccc(-c3ccccc3)cc2)CC1=O (stereo not given)
29 | 450 µM | CN1CC(c2ccc(S(=O)(=O)N3CCCc4ccccc43)cc2)CC1=O (stereo not given)
30 | > 5000 µM | CCN(CC)S(=O)(=O)c1ccc(C2CC(=O)N(C)C2)c(CCCc2ccccc2)c1 (stereo not given)

Source: ChEMBL document CHEMBL4680215, “Substituted 1-methyl-4-phenylpyrrolidin-2-ones - Fragment-based design of N-methylpyrrolidone-derived bromodomain inhibitors” (Eur J Med Chem, 2020)
